# Data reported in patent US10834926B2, “Insecticide properties of an extract of Sextonia rubra, and the constituents thereof” (Centre National de la Recherche Scientifique, priority 2014, dated 2020).
# System: larvae of Aedes aegypti mosquitoes of the PAEA laboratory strain
# Test: Larvicidal in-cup trial on larvae, protocol adapted from WHO protocols
# Type: in vivo
# Conditions: for LD50 (SE) At 24 h / LD90 (SE) At 24 h / LD50 (SE) At 48 h / LD90 (SE) At 48 h: larval mortality, stage 3-4 larvae, PAEA strain; for LD50 (SE) At 24 h / LD90 (SE) At 24 h: 24 h after exposure; for LD50 (SE) At 48 h / LD90 (SE) At 48 h: 48 h after exposure; for minimum concentration corresponding to an effective amount (100% mortality): 100% mortality of larvae at 24 h
# From the text: For the purposes of the present invention, the expression “agent that is insecticidal/larvicidal with respect to a mosquito strain” is intended to mean a compound which results in the death of the mosquito larvae placed in the presence of this compound, for example in the context of an in-cup trial carried out according to the protocol recommended by the WHO (Guidelines for Laboratory and Field Testing of Mosquito Larvicides, WHO/CDS/WHOPES/GCDPP/2005.13, 2005), and for which, according to the WHO criteria for validating the tests, the mortality in the control batches is less than 20%.
# The biological trials were carried out on larvae of Aedes aegypti mosquitoes of the PAEA laboratory strain sensitive to all insecticides. The protocol described hereinafter was adapted according to the WHO protocols.
# This strain originating from French Polynesia has been maintained for about ten years at the insectarium of the Institut Pasteur of Guyana, in Cayenne. The mosquitoes were bred under natural conditions: temperature of 28° C.±2° C., humidity of 80%±20%, and daytime duration 12:12 h±20 min during the year. The Aedes aegypti eggs were kept dry on strips of blotting paper at the insectarium temperature. Hatching was carried out by placing these strips in water under a vacuum bell jar for at least 20 min. The larvae thus obtained were fed with yeast tablets. The larvae at growth stage 3-4 were then used for the extract and constituent activity tests. 100 larvae were transferred into plastic cups containing 99 ml of distilled water. Four cups per concentration (4×25 larvae) and at least 5 concentrations of each extract or constituent diluted in ethanol (crude extract of Sextonia rubra: 1, 2, 3, 4, 5, 7, 10, 25, 35, 50, 75, 100 μg/ml, rubrenolide: 0.1, 0.3, 0.5, 0.7, 1, 1.5, 2 μg/ml, rubrynolide: 0.1, 0.3, 0.5, 0.7, 1, 1.5, 4, 6, 8 μg/ml) were used to measure mortalities ranging from 0 to 100%. Each concentration of extract or of constituent (1 ml) was added to the cup. Controls were also carried out by adding 1 ml of ethanol to the cup. The mortality was evaluated at 24 h and 48 h after exposure of the larvae to the test product (crude extract, isolated constituent, ethanol).
Compound,LD50 (SE) At 24 h,LD90 (SE) At 24 h,LD50 (SE) At 48 h,LD90 (SE) At 48 h,minimum concentration corresponding to an effective amount (100% mortality) [µg/mL],LD50 (SE) At 24 h (listed as rubrenolide) [µg/mL],LD50 (SE) At 24 h (listed as rubrynolide) [µg/mL],LD50 (SE) At 24 h (listed as spinosad) [µg/mL]
"COP(=O)(OC)OC=C(Cl)Cl [Dichlorvos, dichlorvos, reference compound]",0.039 (0.012) μg/ml,0.064 (0.026) μg/ml,0.029 (0.012) μg/ml,0.049 (0.020) μg/ml,,,,
"C=CCCCCCCCC[C@@H]1C[C@H](C[C@@H](O)CO)C(=O)O1 [Rubrenolide, rubrenolide]",0.605 (0.023) μg/ml,2.110 (0.041) μg/ml,0.300 (0.024) μg/ml,0.788 (0.027) μg/ml,2,0.6,,
"C#CCCCCCCCC[C@@H]1C[C@H](C[C@@H](O)CO)C(=O)O1 [Rubrynolide, rubrynolide]",3.840 (0.018) μg/ml,8.909 (0.031) μg/ml,2.105 (0.023) μg/ml,8.200 (0.043) μg/ml,17,,3.8,
spinosad [reference compound],0.387 (0.025) μg/ml,1.118 (0.065) μg/ml,0.193 (0.020) μg/ml,0.444 (0.028) μg/ml,,,,0.4
